{
  "source": "patent EP4796125A1",
  "about": "“TREATMENT OF PATIENT WITH NEGATIVE P53 GENE MUTATION, POSITIVE KRAS GENE MUTATION AND POSITIVE BRCA MUTATION” (Ascentawits Pharmaceuticals, Ltd., priority 2023, dated 2025)",
  "key": {"NCI-H460 cells": {"system": "NCI-H460 cells", "assay": "In vitro proliferation under normoxia conditions (CTG, 72 hours), Example 29", "assay_type": "cell-based", "procedure": "(§1) • 1) NCI-H460 and NCI-H460 P53KO # 1 cell suspensions were added to 96-well plate (100 µL per well), with a cell density of 2000 cells/well. • 2) The cells were cultured overnight in a 37°C, 5% CO2 incubator. • 3) Compound Treatment\n(§2) Monotherapy: 24 hours after cell plating, each well was supplemented with 99.5 µL of growth medium. Then, 0.5 µL of test compounds at different concentrations was added. The plate was gently shaken to ensure even mixing, and then placed in a 37°C, 5% CO2 incubator.\n(§3) Combination therapy: 24 hours after cell plating, each well was supplemented with 99 µL of growth medium. Then, 0.5 µL of the combination compound was added. The plate was gently shaken to ensure even mixing, and then placed in an incubator for 2 hours. Then, 0.5µL of test compounds at different concentrations was added. The plate was gently shaken to ensure even mixing, and then placed in a 37°C, 5% CO2 incubator. • 4) The cell plate was placed in the incubator for 72 hours. • 5) The cell plate to be tested was placed at room temperature and equilibrated for 30 minutes, and 100 µL of medium was discarded from each well. • 6) 25 µL of CTG reagent was added to each well, placed at a fast shaker to shake for 2 minutes, and placed at room temperature for 30 minutes (protected from light). • 7) The chemiluminescence signal value was read using a multifunctional microplate reader with a reading time of 1000 ms. • 8) IC50 (half maximal inhibitory concentration) values were calculated using GraphPad Prism 5 software."}, "NCI-H460 P53KO #1 cells": {"system": "NCI-H460 P53KO #1 cells", "assay": "In vitro proliferation under normoxia conditions (CTG, 72 hours), Example 29", "assay_type": "cell-based, human", "details": "Table 25", "procedure": "as §1, §2, §3"}, "[1]": {"system": "RAD51 protein in H460 cells", "assay": "WB detection of RAD51 protein (level, degradation with MG-132, half-life with Cycloheximide)", "assay_type": "cell-based", "details": "0.1 nM AST-3424, 5 µM Nutlin-3, then 5 µM MG-132 for 6 hours (Figure 21)", "procedure": "In the first experiment, the second experiment and the third experiment about the effect of the combination of AST-3424 and Nutlin-3 on Ser15-p53, Ser20-p53, Total p53, MDM2, and p21 proteins in H460 cells in Example 21, the applicant also performed WB detection of RAD51 protein.\n• 1) H460 cell suspension was added to a 24-well plate, with a cell density of 100000 cells/well and 995 µL of medium per well. • 2) The cells were cultured overnight in a 37°C, 5% CO2 incubator. • 3) Compound Treatment\nMonotherapy: 24 hours after cell plating, 5 µL of test compounds at different concentrations was added: 1% DMSO, 0.1 nM AST-3424, and 5 µM Nutlin-3. The plate was gently shaken to ensure even mixing, and then placed in a 37°C, 5% CO2 incubator. After culturing for another 24 hours, the cells were collected.\nCombination therapy: 24 hours after cell plating, • Adding 0.1 nM AST-3424 for pre-treatment for 2 hours, and then adding 5 µM Nutlin-3 for co-treatment for 22 hours; • Adding 1% DMSO and 5 µM MG-132 for co-treatment for 24 hours; • Adding 0.1 nM AST-3424 and 5 µM MG-132 for co-treatment for 24 hours; • Adding 5 µM Nutlin-3 and 5 µM MG-132 for co-treatment for 24 hours; • Adding 0.1 nM AST-3424 for pre-treatment for 2 hours, and then adding 5 µM Nutlin-3 for treatment for 16 hours, and then adding 5 µM MG-132 for co-treatment for 6 hours. […]"}, "[2]": {"system": "NRF2 and AKR1C3 in HPAF II cells", "details": "0.875, 1.75, 3.5, 7 µM SFN, overnight, with increasing concentration", "procedure": "A solution of SFN compound (Sulforaphane, NRF2 activator) was added to HPAF II cell suspension. The mixture was cultured overnight in a 37°C, 5% CO2 incubator. The cell protein lysate was collected for Western Blotting (WB) detection. The experiment consisted of five groups: 0.5% DMSO, 0.875 µM SFN, 1.75 µM SFN, 3.5 µM SFN, and 7 µM SFN. HPAF II cells were treated with different concentrations of the NRF2 activator SFN, and then subjected to Western Blotting to detect the expressions of NRF2 and AKR1C3."}, "HPAF-II cells": {"system": "HPAF-II cells", "assay": "In vitro proliferation inhibition experiment (CTG, 72 hours), Example 20", "assay_type": "cell-based, human", "details": "Homo sapiens, Table 15, HPAF-II, read-out: Inhibition rate/%", "procedure": "(§4) • 1) H460 and HPAF-II cell suspensions were added to a 96-well plate (100 µL per well), with cell densities of 2000 cells/well and 20000 cells/well, respectively. • 2) The cells were cultured overnight in a 37°C, 5% CO2 incubator. • 3) Compound Treatment\n(§5) Combination therapy: 24 hours after cell plating, each well was supplemented with 99 µL of growth medium. Then, 0.5 µL of Nutlin-3 or RITA was added to each well. The plate was gently shaken to ensure even mixing, and then placed in an incubator for 2 hours. Then, 0.5 µL of test compounds at different concentrations was added. The plate was gently shaken to ensure even mixing, and then placed in a 37°C, 5% CO2 incubator.\n(§6) Monotherapy: 24 hours after cell plating, each well was supplemented with 99.5 µL of growth medium. Then, 0.5 µL of test compounds at different concentrations was added. The plate was gently shaken to ensure even mixing, and then placed in a 37°C, 5% CO2 incubator. • 4) The cell plate was placed in the incubator for 72 hours. • 5) The cell plate to be tested was placed at room temperature and equilibrated for 30 minutes, and 100 µL of medium was discarded from each well. • 6) 25 µL of CTG reagent was added to each well, placed on a fast shaker to shake for 2 minutes, and placed at room temperature for 30 minutes (protected from light). • 7) The chemiluminescence signal value was read using a multifunctional microplate reader with a reading time of 1000 ms, and the corresponding inhibition rate data were calculated."}, "H460 cells": {"system": "H460 cells", "assay": "In vitro proliferation inhibition experiment (CTG, 72 hours), Example 20", "assay_type": "cell-based", "details": "Homo sapiens, NCI-H460, read-out: Inhibition rate result / %", "procedure": "as §4, §5, §6"}, "[3]": {"system": "cell lines and mouse tumor models of BRCA pathogenic mutations", "details": "in vitro and in vivo pharmacodynamic experiments; data of WO2023174319A; cited from earlier work"}},
  "note": "Peptide text beside a SMILES is read from it. * marks the point of attachment. Cbz = O=C(OCc1ccccc1)*",
  "data": [
    {"smiles": "CN(C)C(=O)c1cccc(Oc2cc3c(cc2[N+](=O)[O-])OCCC3OP(=O)(N2CC2)N2CC2)c1", "note": "(stereo not shown) [Compound C]", "values": [
      {"measurement": "IC50", "setting": "NCI-H460 cells; Homo sapiens, Table 25, normoxia, alone or + 3 µM AST-3021", "result": 0.00205, "unit": "µM"},
      {"measurement": "Ratio, Compound C/AST-3424", "setting": "NCI-H460 cells; Table 25, IC50 ratio", "result": 4.77},
      {"measurement": "IC50", "setting": "NCI-H460 P53KO #1 cells; Homo sapiens, NCI-H460 P53KO # 1, normoxia, alone or + 3 µM AST-3021", "result": 0.0361, "unit": "µM"},
      {"measurement": "Ratio, knockout / wild-type", "setting": "NCI-H460 P53KO #1 cells; IC50 in NCI-H460 P53KO # 1 / NCI-H460", "result": 17.60},
      {"measurement": "Ratio, Compound C/AST-3424", "setting": "NCI-H460 P53KO #1 cells; NCI-H460 P53KO # 1, IC50 ratio", "result": 6.62}
    ]},
    {"smiles": "CC(C)C[C@@H](C=O)NC(=O)[C@H](CC(C)C)NC(=O)[C@H](CC(C)C)NC(=O)OCc1ccccc1", "note": "[MG-132] (Cbz-Leu-Leu-Leu-aldehyde)", "values": [
      {"measurement": "RAD51 protein level after addition of MG-132", "setting": "[1]", "result": "reverses the downregulation of RAD51 protein"}
    ]},
    {"smiles": "C[S+]([O-])CCCCN=C=S", "note": "(stereo not shown) [SFN, Sulforaphane]", "values": [
      {"measurement": "expression of AKR1C3", "setting": "[2]", "result": "also increases simultaneously"},
      {"measurement": "expression of NRF2", "setting": "[2]", "result": "increases significantly"}
    ]},
    {"smiles": "OCc1ccc(-c2ccc(-c3ccc(CO)s3)o2)s1", "note": "[RITA]", "values": [
      {"measurement": "inhibition at 2.5 µM", "setting": "HPAF-II cells; group 1: AST 60 nM, RITA 2.5 µM, AST + RITA 60+ 2.5", "result": 2.86, "unit": "%"},
      {"measurement": "inhibition at 5 µM", "setting": "HPAF-II cells; group 2: AST 60 nM, RITA 5 µM, AST + RITA 60+ 5", "result": 5.56, "unit": "%"},
      {"measurement": "inhibition at 0.025 µM", "setting": "H460 cells; Table 13, H460, group 1: AST 0.5 nM, RITA 0.025 µM, AST + RITA 0.5+0.025", "result": 22.3, "unit": "%"},
      {"measurement": "inhibition at 0.05 µM", "setting": "H460 cells; Table 13, H460, group 2: AST 0.5 nM, RITA 0.05 µM, AST + RITA 0.5+0.05", "result": 22.4, "unit": "%"}
    ]},
    {"smiles": "Cn1c(COP(=O)(NCCBr)NCCBr)cnc1[N+](=O)[O-]", "note": "[TH-302]", "values": [
      {"measurement": "sensitivity of cell lines and mouse tumor models of BRCA pathogenic mutations", "setting": "[3]", "result": "more sensitive"}
    ]}
  ]
}
